Test results taken from patent US10093630B2, “Pyrazole compounds and methods of making and using same” (ABIDE THERAPEUTICS, INC., priority 2014, dated 2018).
Where two headings read alike, the source gives them in different places.

Key:
Test in all cases: In vitro competitive activity-based protein profiling (gel-based, FP-Rh or HT-01 probe)
Format in all cases: biochemical
FAAH = biological target: T1, FAAH (Mus musculus, UniProt O08914); settings: for inhibition at 1 µM: 1 μM inhibitor, read-out: % Inhibition at 1 μM, B = FAAH; for inhibition at 10 µM: 10 μM inhibitor, read-out: % Inhibition at 10 μM, B = FAAH; for IC50: mouse brain membrane fraction or cell lysates, 30 min preincubation at 37° C., read-out: Mouse (IC50 value, nM) FAAH
T1 construct: Proteomes (mouse brain membrane fraction or cell lysates); from tissue; host or cells: mouse brain membrane fraction (or cell lysates, not specified)
T1 sequence (O08914 1-579): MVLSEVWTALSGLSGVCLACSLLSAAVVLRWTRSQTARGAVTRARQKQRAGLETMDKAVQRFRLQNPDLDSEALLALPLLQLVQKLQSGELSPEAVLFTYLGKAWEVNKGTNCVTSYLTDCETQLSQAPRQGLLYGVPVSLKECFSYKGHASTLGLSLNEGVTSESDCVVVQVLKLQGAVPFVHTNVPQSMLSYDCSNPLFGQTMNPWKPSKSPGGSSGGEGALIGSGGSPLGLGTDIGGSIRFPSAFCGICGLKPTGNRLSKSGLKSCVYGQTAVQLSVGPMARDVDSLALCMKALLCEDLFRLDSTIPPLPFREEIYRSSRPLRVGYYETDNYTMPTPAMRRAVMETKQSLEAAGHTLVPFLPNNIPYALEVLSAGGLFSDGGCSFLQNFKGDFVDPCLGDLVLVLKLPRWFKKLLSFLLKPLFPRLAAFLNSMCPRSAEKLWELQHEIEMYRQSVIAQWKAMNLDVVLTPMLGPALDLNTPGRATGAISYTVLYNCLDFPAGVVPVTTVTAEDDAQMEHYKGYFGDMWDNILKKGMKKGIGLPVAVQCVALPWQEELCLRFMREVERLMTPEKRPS
Summary of the method: (§1)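 Mouse brain membrane or cell lysate proteomes (1.0 mg/mL) preincubated with inhibitors 30 min at 37° C, then labelled with FP-Rh or HT-01 for 30 min at 37° C. After SDS-PAGE, activity quantified from fluorescent band intensity.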

ABHD6 = biological target: T2, ABHD6 (Mus musculus, UniProt Q8R2Y0); settings: for inhibition at 1 µM: 1 μM inhibitor, read-out: % Inhibition at 1 μM, C = ABHD6; for inhibition at 10 µM: 10 μM inhibitor, read-out: % Inhibition at 10 μM, C = ABHD6; for IC50: mouse brain membrane fraction or cell lysates, 30 min preincubation at 37° C., read-out: Mouse (IC50 value, nM) ABHD6
T2 construct: Proteomes (mouse brain membrane fraction or cell lysates); from tissue; host or cells: mouse brain membrane fraction (or cell lysates, not specified)
T2 sequence (Q8R2Y0 1-336): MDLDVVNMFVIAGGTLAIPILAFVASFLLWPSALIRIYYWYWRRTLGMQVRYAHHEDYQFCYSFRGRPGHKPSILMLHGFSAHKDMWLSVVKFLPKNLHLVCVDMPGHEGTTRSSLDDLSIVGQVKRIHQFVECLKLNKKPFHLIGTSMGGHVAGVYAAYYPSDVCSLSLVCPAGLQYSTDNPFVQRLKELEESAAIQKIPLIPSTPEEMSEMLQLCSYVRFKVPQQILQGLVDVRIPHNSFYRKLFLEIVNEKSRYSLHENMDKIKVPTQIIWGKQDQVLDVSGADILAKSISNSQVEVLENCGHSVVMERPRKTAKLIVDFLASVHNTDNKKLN
Summary of the method: as §1

MAGL = biological target: T3, MAGL (Mus musculus, UniProt O35678); settings: for inhibition at 1 µM: 1 μM inhibitor; for inhibition at 10 µM: 10 μM inhibitor; for IC50: mouse brain membrane fraction or cell lysates, 30 min preincubation at 37° C., read-out: Mouse (IC50 value, nM) MAGL
T3 construct: Proteomes (mouse brain membrane fraction or cell lysates); from tissue; host or cells: mouse brain membrane fraction (or cell lysates, not specified)
T3 sequence (O35678 1-303): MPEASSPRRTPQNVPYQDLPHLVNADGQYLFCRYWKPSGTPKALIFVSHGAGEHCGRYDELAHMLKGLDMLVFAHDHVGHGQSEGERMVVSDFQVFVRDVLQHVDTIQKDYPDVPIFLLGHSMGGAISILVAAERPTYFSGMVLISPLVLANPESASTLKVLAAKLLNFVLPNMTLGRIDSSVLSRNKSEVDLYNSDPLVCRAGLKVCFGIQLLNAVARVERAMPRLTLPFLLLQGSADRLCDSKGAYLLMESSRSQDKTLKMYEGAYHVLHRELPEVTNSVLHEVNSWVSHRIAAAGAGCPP
Summary of the method: as §1

PLA2G7 = biological target: T4, PLA2G7 (Mus musculus, UniProt Q60963); settings: for inhibition at 1 µM: 1 μM inhibitor, read-out: % Inhibition at 1 μM, D = PLA2G7; for inhibition at 10 µM: 10 μM inhibitor, read-out: % Inhibition at 10 μM, D = PLA2G7; for IC50: mouse brain membrane fraction or cell lysates, 30 min preincubation at 37° C.
T4 construct: Proteomes (mouse brain membrane fraction or cell lysates); from tissue; host or cells: mouse brain membrane fraction (or cell lysates, not specified)
T4 sequence (Q60963 22-440): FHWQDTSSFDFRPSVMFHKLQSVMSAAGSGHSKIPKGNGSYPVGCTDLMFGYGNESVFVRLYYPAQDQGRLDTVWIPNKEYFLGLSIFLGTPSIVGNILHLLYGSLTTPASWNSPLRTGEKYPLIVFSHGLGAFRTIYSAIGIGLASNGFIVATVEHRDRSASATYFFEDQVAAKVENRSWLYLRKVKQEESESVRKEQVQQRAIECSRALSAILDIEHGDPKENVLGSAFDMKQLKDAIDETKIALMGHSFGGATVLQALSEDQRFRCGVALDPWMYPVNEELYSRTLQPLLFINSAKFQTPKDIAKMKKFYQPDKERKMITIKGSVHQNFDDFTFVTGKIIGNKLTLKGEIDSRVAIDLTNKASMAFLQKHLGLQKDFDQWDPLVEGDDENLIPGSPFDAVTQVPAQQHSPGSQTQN
Summary of the method: as §1

SMILES | inhibition at 1 µM (FAAH; gel-based competitive ABPP) [%] | inhibition at 10 µM (FAAH; gel-based competitive ABPP) [%] | inhibition at 1 µM (ABHD6; gel-based competitive ABPP) [%] | inhibition at 10 µM (ABHD6; gel-based competitive ABPP) [%] | inhibition at 1 µM (MAGL; gel-based competitive ABPP) [%] | inhibition at 10 µM (MAGL; gel-based competitive ABPP) [%] | inhibition at 1 µM (PLA2G7; gel-based competitive ABPP) [%] | inhibition at 10 µM (PLA2G7; gel-based competitive ABPP) [%] | inhibition at 1 µM (FAAH) [%] | inhibition at 10 µM (FAAH) [%] | inhibition at 1 µM (ABHD6) [%] | inhibition at 10 µM (ABHD6) [%] | inhibition at 1 µM (MAGL) [%] | inhibition at 10 µM (MAGL) [%] | inhibition at 1 µM (PLA2G7) [%] | inhibition at 10 µM (PLA2G7) [%] | IC50 (FAAH) [nM] | IC50 (ABHD6) [nM] | IC50 (MAGL) [nM] | IC50 (PLA2G7) [nM]
O=C(c1cnn(C(=O)N2CCN(Cc3ccc(-c4ccccc4)cc3OCc3ccccc3)CC2)c1)N1CCCC1 [Example 291, (4-((3-(Benzyloxy)biphenyl-4-yl)methyl)piperazin-1-yl)(4-(pyrrolidine-1-carbonyl)-1H-pyrazol-1-yl)methanone] | > 75 | > 75 | > 75 | > 75 | > 75 | > 75 | < 25 | 25 to 75 | – | – | – | – | – | – | – | – | – | – | – | –
CCN(Cc1cccc(OC)c1)C(=O)n1cc(C)cn1 [Example 251, N-Ethyl-N-(3-methoxybenzyl)-4-methyl-1H-pyrazole-1-carboxamide] | < 25 | – | < 25 | – | < 25 | – | < 25 | – | – | – | – | – | – | – | – | – | – | – | – | –
O=C(N1CCCCC1)n1cccn1 [Example 1, Piperidin-1-yl(1H-pyrazol-1-yl)methanone] | – | – | – | – | – | – | – | – | < 25 | > 75 | < 25 | > 75 | < 25 | 25 to 75 | < 25 | 25 to 75 | – | – | – | –
CCN(Cc1cccc(Cl)c1)C(=O)n1cc(C)cn1 [Example 245, N-(3-chlorobenzyl)-N-ethyl-4-methyl-1H-pyrazole-1-carboxamide] | < 25 | – | < 25 | – | < 25 | – | < 25 | – | – | – | – | – | – | – | – | – | – | – | – | –
O=C(N1CCN(Cc2ccc(C(F)(F)F)cc2)CC1)n1cc(Cl)cn1 [Example 213, (4-Chloro-1H-pyrazol-1-yl)(4-(4-(trifluoromethyl)benzyl)piperazin-1-yl)methanone] | – | – | – | – | – | – | – | – | > 75 | > 75 | > 75 | > 75 | > 75 | > 75 | < 25 | > 75 | < 100 | < 100 | < 100 | 100 to 1000
O=C(c1cnn(C(=O)N2CCN(Cc3ccncc3)CC2)c1)N1CCCCC1 [Example 70, Piperidin-1-yl(1-(4-(pyridin-4-ylmethyl)piperazine-1-carbonyl)-1H-pyrazol-4-yl)methanone] | – | – | – | – | – | – | – | – | < 25 | 25 to 75 | 25 to 75 | > 75 | < 25 | < 25 | > 75 | > 75 | – | – | – | –
O=C(N1CCN(Cc2ccc(-c3ccccc3)cc2OCc2ccccc2)CC1)n1cc(Cl)cn1 [Example 148, (4-((3-(Benzyloxy)biphenyl-4-yl)methyl)piperazin-1-yl)(4-chloro-1H-pyrazol-1-yl)methanone] | – | – | – | – | – | – | – | – | > 75 | > 75 | > 75 | > 75 | > 75 | > 75 | < 25 | < 25 | – | – | – | –
CN1CCCN(C(=O)n2cc(C(F)(F)F)cn2)CC1 [Example 156, (4-Methyl-1,4-diazepan-1-yl)(4-(trifluoromethyl)-1H-pyrazol-1-yl)methanone] | – | – | – | – | – | – | – | – | < 25 | 25 to 75 | < 25 | < 25 | < 25 | < 25 | < 25 | > 75 | – | – | – | –
Cc1cnn(C(=O)NCCCCCc2ccccc2)c1 [Example 38, 4-Methyl-N-(5-phenylpentyl)-1H-pyrazole-1-carboxamide] | – | – | – | – | – | – | – | – | – | < 25 | – | < 25 | – | < 25 | – | < 25 | – | – | – | –
O=C(N1CCN(Cc2ccccc2C(F)(F)F)CC1)n1cc(C(F)(F)F)cn1 [Example 279, (4-(Trifluoromethyl)-1H-pyrazol-1-yl)(4-(2-(trifluoromethyl)benzyl)piperazin-1-yl)methanone] | > 75 | – | > 75 | – | > 75 | – | > 75 | – | – | – | – | – | – | – | – | – | < 100 | < 100 | < 100 | 100 to 1000
CC(=O)N1CCN(C(=O)n2cc(C#N)cn2)CC1 [Example 173, 1-(4-Acetylpiperazine-1-carbonyl)-1H-pyrazole-4-carbonitrile] | – | – | – | – | – | – | – | – | < 25 | < 25 | < 25 | 25 to 75 | < 25 | 25 to 75 | > 75 | > 75 | – | – | – | –
CCN(Cc1ccc(N2CCOCC2)cc1)C(=O)n1cc(C)cn1 [Example 265, N-Ethyl-4-methyl-N-(4-morpholinobenzyl)-1H-pyrazole-1-carboxamide] | < 25 | – | < 25 | – | < 25 | – | < 25 | – | – | – | – | – | – | – | – | – | – | – | – | –
O=C(N1CCOCC1)n1cc(C(F)(F)F)cn1 [Example 201, Morpholino(4-(trifluoromethyl)-1H-pyrazol-1-yl)methanone] | – | – | – | – | – | – | – | – | > 75 | > 75 | > 75 | > 75 | < 25 | 25 to 75 | > 75 | > 75 | – | – | – | –
O=C(N1CCN(Cc2ccc(Cl)c(Cl)c2)CC1)n1cc(Cl)cn1 [Example 211, (4-Chloro-1H-pyrazol-1-yl)(4-(3,4-dichlorobenzyl)piperazin-1-yl)methanone] | – | – | – | – | – | – | – | – | > 75 | > 75 | > 75 | > 75 | > 75 | > 75 | < 25 | > 75 | < 100 | < 100 | < 100 | –
